Laboratory results: patent US8685974B2 (Bayer CropScience AG, priority 2009, dated 2014)
Counter-ions that a name gives are not always drawn.

Test: physchem
Details: pH 2.7

Structure (SMILES) | log p
CCCc1c(I)c(-c2sccc2C)nn1C [4-Iodo-1-methyl-3-(3-methyl-2-thienyl)-5-propyl-1H-pyrazole] | 4.03
CC(=O)c1ccc(-c2n[nH]cc2-c2ccncc2)s1 [1-{5-[4-(pyridin-4-yl)-1H-pyrazol-3-yl]-2-thienyl}ethanone hydrochloride] | 0.62
CCC(C)n1cc(-c2ccnc(Cl)c2)c(-c2ccc(Cl)s2)n1 (stereo not shown) [2-Chloro-4-[1-sec-butyl-3-(5-chloro-2-thienyl)-1H-pyrazol-4-yl]pyridine] | 4.9
CC(C)n1ncc(I)c1-c1cccs1 [4-Iodo-1-isopropyl-5-(2-thienyl)-1H-pyrazole] | 3.66
Cc1csc(-c2nn(C(C)C)cc2I)c1 [4-Iodo-1-isopropyl-3-(4-methyl-2-thienyl)-1H-pyrazole] | 4.26
Clc1ccc(-c2n[nH]c(Br)c2-c2ccncc2)s1 [4-[5-Bromo-3-(5-chloro-2-thienyl)-1H-pyrazol-4-yl]pyridine] | 1.4
CCCn1nccc1-c1cc(C)cs1 [5-(4-Methyl-2-thienyl)-1-propyl-1H-pyrazole] | 3.1
CC(C)Nc1nccc(C(=CN(C)C)C(=O)c2ccc(Cl)s2)n1 [3-(Dimethylamino)-1-(5-chloro-2-thienyl)-2-[2-(isopropylamino)pyrimidin-4-yl]prop-2-en-1-one] | 1.67
CCCn1ccc(-c2cc(C)cs2)n1 [3-(4-Methyl-2-thienyl)-1-propyl-1H-pyrazole] | 3.07
CCn1cc(-c2ccncc2)c(-c2cccs2)n1 [4-[1-Ethyl-3-(2-thienyl)-1H-pyrazol-4-yl]pyridine] | 0.75
CCC(C)n1cc(-c2ccncc2)c(-c2cc(Cl)cs2)n1 (stereo not shown) [4-[1-sec-Butyl-3-(4-chloro-2-thienyl)-1H-pyrazol-4-yl]pyridine] | 1.83
CCC(C)n1ncc(I)c1-c1cccs1 (stereo not shown) [1-sec-Butyl-4-iodo-5-(2-thienyl)-1H-pyrazole] | 4.12
Cc1csc(-c2ccn(C(C)C)n2)c1 [1-Isopropyl-3-(4-methyl-2-thienyl)-1H-pyrazole] | 3.14
Clc1csc(-c2n[nH]cc2I)c1 [3-(4-chloro-2-thienyl)-4-iodo-1H-pyrazole] | 2.68
CN(C)C=CC(=O)c1cc(Br)cs1 [1-(4-Bromo-2-thienyl)-3-(dimethylamino)prop-2-en-1-one] | 1.94
CC(C)n1ccc(-c2cc(Br)c(Br)s2)n1 [3-(4,5-Dibromo-2-thienyl)-1-isopropyl-1H-pyrazole] | 4.64
CCC(C)n1ccc(-c2cccs2)n1 (stereo not shown) [1-sec-Butyl-3-(2-thienyl)-1H-pyrazole] | 3.1
CSc1ccc(-c2c(-c3ccncc3)cnn2C(C)C)s1 [4-[1-Isopropyl-5-(5-methylsulfanyl-2-thienyl)-1H-pyrazol-4-yl]pyridine] | 1.78
CCC(C)n1cc(-c2ccnc(C#CC3CC3)c2)c(-c2ccc(Cl)s2)n1 (stereo not shown) [4-[1-sec-Butyl-3-(5-chloro-2-thienyl)-1H-pyrazol-4-yl]-2-(cyclopropylethynyl)pyridine] | 4.56
CC(C)n1cc(-c2ccnc(NCc3ccccc3)n2)c(-c2ccc(Cl)s2)n1 [N-Benzyl-4-[3-(5-chloro-2-thienyl)-1-isopropyl-1H-pyrazol-4-yl]pyrimidin-2-amine] | 3.81
Cc1csc(C(=O)C=CN(C)C)c1 [3-(Dimethylamino)-1-(4-methyl-2-thienyl)prop-2-en-1-one] | 1.65

Structure (SMILES) | log p
CCn1cc(I)c(-c2cccs2)n1 [1-Ethyl-4-iodo-3-(2-thienyl)-1H-pyrazole] | 3.13
CCC(C)n1ncc(I)c1-c1cc(Cl)cs1 (stereo not shown) [1-sec-Butyl-5-(4-chloro-2-thienyl)-4-iodo-1H-pyrazole] | 4.72
CC(=O)N(C(C)=O)c1cc(-c2cn(C(C)C)nc2-c2ccc(Cl)s2)ccn1 [N-Acetyl-N-{4-[3-(5-chloro-2-thienyl)-1-isopropyl-1H-pyrazol-4-yl]pyridin-2-yl}acetamide] | 3.33
CCn1nc(-c2ccc(Cl)s2)c(Br)c1C [4-Bromo-3-(5-chloro-2-thienyl)-1-ethyl-5-methyl-1H-pyrazole] | 4.54
CCC(C)n1ncc(-c2ccncc2)c1-c1ccc(Cl)s1 (stereo not shown) [4-[1-sec-Butyl-5-(5-chloro-2-thienyl)-1H-pyrazol-4-yl]pyridine] | 1.94
CSc1nccc(C(=CN(C)C)C(=O)c2ccc(Cl)s2)n1 [3-(Dimethylamino)-1-(5-chloro-2-thienyl)-2-[2-(methylsulfanyl)pyrimidin-4-yl]prop-2-en-1-one] | 2.27
CCn1ncc(I)c1-c1cc(Cl)cs1 [5-(4-Chloro-2-thienyl)-1-ethyl-4-iodo-1H-pyrazole] | 3.76
CSc1nccc(CC(=O)c2ccc(Cl)s2)n1 [1-(5-Chloro-2-thienyl)-2-[2-(methylsulfanyl)pyrimidin-4-yl]ethanone] | 2.98
CC(C)Cn1ncc(-c2ccnc(Cl)c2)c1-c1ccc(Cl)s1 [2-Chloro-4-[1-isobutyl-5-(5-chloro-2-thienyl)-1H-pyrazol-4-yl]pyridine] | 4.62
Clc1cc(-c2c[nH]nc2-c2ccc(Cl)s2)ccn1 [2-Chloro-4-[3-(5-chloro-2-thienyl)-1H-pyrazol-4-yl]pyridine] | 2.75
CC(C)n1nccc1-c1cc(Br)cs1 [5-(4-Bromo-2-thienyl)-1-isopropyl-1H-pyrazole] | 3.44
CCC(C)n1cc(-c2ccnc(NC(C)=O)c2)c(-c2ccc(Cl)s2)n1 (stereo not shown) [N-{4-[1-sec-butyl-3-(5-chloro-2-thienyl)-1H-pyrazol-4-yl]pyridin-2-yl}acetamide] | 2.94
CC(C)n1ccc(-c2cc(Br)cs2)n1 [3-(4-Bromo-2-thienyl)-1-isopropyl-1H-pyrazole] | 3.61
CC(C)n1ncc(-c2ccncc2)c1-c1ccc(F)s1 [4-[1-Isopropyl-5-(5-fluoro-2-thienyl)-1H-pyrazol-4-yl]pyridine] | 1.51
Cc1c(Br)c(-c2ccc(Cl)s2)nn1C [4-Bromo-3-(5-chloro-2-thienyl)-1,5-dimethyl-1H-pyrazole] | 3.92
CCC(C)n1cc(I)c(-c2cccs2)n1 (stereo not shown) [1-sec-Butyl-4-iodo-3-(2-thienyl)-1H-pyrazole] | 4.12
CC(C)Nc1nccc(-c2cn(C(C)C)nc2-c2ccc(Cl)s2)n1 [N-Isopropyl-4-[3-(5-chloro-2-thienyl)-1-isopropyl-1H-pyrazol-4-yl]pyrimidin-2-amine] | 2.82
CCn1nccc1-c1cc(Br)cs1 [5-(4-Bromo-2-thienyl)-1-ethyl-1H-pyrazole] | 2.92
CN(C)C=C(C(=O)c1ccc(Cl)s1)c1ccnc(Cl)c1 [1-(5-chloro-2-thienyl)-3-(dimethylamino)-2-(2-chloropyridin-4-yl)prop-2-en-1-one] | 2.58
CCC(C)n1cc(I)c(-c2cc(C)cs2)n1 (stereo not shown) [1-sec-Butyl-4-iodo-3-(4-methyl-2-thienyl)-1H-pyrazole] | 4.79
CCn1ccc(-c2cccs2)n1 [1-Ethyl-3-(2-thienyl)-1H-pyrazole] | 2.14

Structure (SMILES) | log p
CCCc1cc(-c2sccc2C)n(C)n1 [1-Methyl-5-(3-methyl-2-thienyl)-3-propyl-1H-pyrazole] | 3.34
CSc1nccc(-c2c[nH]nc2-c2ccc(Cl)s2)n1 [4-[3-(5-Chloro-2-thienyl)-1H-pyrazol-4-yl]-2-(methylsulfanyl)pyrimidine] | 2.78
CC(C)Nc1nccc(-c2c[nH]nc2-c2ccc(Cl)s2)n1 [4-[3-(5-Chloro-2-thienyl)-1H-pyrazol-4-yl]-2-(isopropylamino)pyrimidine] | 1.79
Clc1csc(-c2cc[nH]n2)c1 [3-(4-Chloro-2-thienyl)-1H-pyrazole] | 1.91
CCC(C)n1cc(-c2ccnc(Br)c2)c(-c2ccc(Cl)s2)n1 (stereo not shown) [2-Bromo-4-[1-sec-butyl-3-(5-chloro-2-thienyl)-1H-pyrazol-4-yl]pyridine] | 5.03
CCC(C)n1cc(-c2ccncc2)c(-c2ccc(F)s2)n1 (stereo not shown) [4-[1-sec-butyl-3-(5-fluoro-2-thienyl)-1H-pyrazol-4-yl]pyridine] | 1.78
CCC(C)n1cc(I)c(-c2cc(Cl)cs2)n1 (stereo not shown) [1-sec-Butyl-3-(4-chloro-2-thienyl)-4-iodo-1H-pyrazole] | 5.01
CC(C)Cn1cc(-c2ccnc(Cl)c2)c(-c2ccc(Cl)s2)n1 [2-Chloro-4-[1-isobutyl-3-(5-chloro-2-thienyl)-1H-pyrazol-4-yl]pyridine] | 4.85
C#CCNc1cc(-c2cn(CC(C)C)nc2-c2ccc(Cl)s2)ccn1 [2-Propargylamino-4-[1-isobutyl-3-(5-chloro-2-thienyl)-1H-pyrazol-4-yl]pyridine] | 2.3
CCC(=O)Nc1cc(-c2cn(CC)nc2-c2cccs2)ccn1 [N-{4-[1-Ethyl-3-(2-thienyl)-1H-pyrazol-4-yl]pyridin-2-yl}propanamide] | 1.65
CN(C)C=CC(=O)c1cccs1 [3-(Dimethylamino)-1-(2-thienyl)prop-2-en-1-one] | 1.33
N#Cc1[nH]nc(-c2ccc(Cl)s2)c1-c1ccncc1 [3-(5-Chloro-2-thienyl)-4-(pyridin-4-yl)-1H-pyrazole-5-carbonitrile] | 1.53
CN(C)C=C(C(=O)c1ccc(Cl)s1)c1ccncc1 [1-(5-chloro-2-thienyl)-3-(dimethylamino)-2-(pyridin-4-yl)prop-2-en-1-one] | 1.07
O=C(Cc1ccnc(Cl)c1)c1ccc(Cl)s1 [1-(5-chloro-2-thienyl)-2-(2-chloropyridin-4-yl)ethanone] | 2.94
CCC(C)n1cc(-c2ccnc(C#N)c2)c(-c2ccc(Cl)s2)n1 (stereo not shown) [2-Cyano-4-[1-sec-butyl-3-(5-chloro-2-thienyl)-1H-pyrazol-4-yl]pyridine] | 4.41
CC(=O)Nc1cc(-c2cn(CC(C)C)nc2-c2ccc(Cl)s2)cc[n+]1[O-] [N-{4-[3-(5-chloro-2-thienyl)-1-isobutyl-1H-pyrazol-4-yl]-1-oxidopyridin-2-yl}acetamide] | 2.86
CC(C)n1nccc1-c1cccs1 [1-Isopropyl-5-(2-thienyl)-1H-pyrazole] | 2.69
CC(=O)N(C(C)=O)c1nccc(-c2cn(C(C)C)nc2-c2ccc(Cl)s2)n1 [N-Acetyl-N-{4-[3-(5-chloro-2-thienyl)-1-isopropyl-1H-pyrazol-4-yl]pyrimidin-2-yl}acetamide] | 3.33
CC(C)n1nccc1-c1cc(Br)c(Br)s1 [5-(4,5-Dibromo-2-thienyl)-1-isopropyl-1H-pyrazole] | 4.44
